Laboratory results taken from ChEMBL document CHEMBL1201862, “PubChem BioAssay data set” (2004).
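Results reflect a 48-hour exposure of cells in 96-well plates to compound at five concentrations. Here, GI50 denotes the concentration required for 50% inhibition of growth.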 Activity calls are given as the source filed them. Rule as the data show it: active = GI50 up to about 1.1 µM and inactive = higher.

Legend:
Assay in all cases: DTP human tumour cell line panel, 48 h
MOLT-4 = test system: MOLT-4
OVCAR-4 = test system: OVCAR-4
HCT-15 = test system: HCT-15
OVCAR-5 = test system: OVCAR-5
OVCAR-8 = test system: OVCAR-8
XF498 = test system: XF498
EKVX = test system: EKVX
CCRF-CEM = test system: CCRF-CEM
NCI-H226 = test system: NCI-H226
KM12 = test system: KM12
SF-539 = test system: SF-539
UACC-257 = test system: UACC-257
COLO 205 = test system: COLO 205
HL-60 = test system: HL-60
SN12C = test system: SN12C
BT-549 = test system: BT-549
SR = test system: SR
MCF7 = test system: MCF7
PC-3 = test system: PC-3
HCT-116 = test system: HCT-116

SMILES | GI50 (MOLT-4) | GI50 (OVCAR-4) | GI50 (HCT-15) [µM] | GI50 (OVCAR-5) | GI50 (OVCAR-8) | GI50 (XF498) | GI50 (EKVX) | GI50 (CCRF-CEM) | GI50 (NCI-H226) | GI50 (KM12) | GI50 (SF-539) | GI50 (UACC-257) | GI50 (COLO 205) | GI50 (HL-60) | GI50 (SN12C) | GI50 (BT-549) | GI50 (SR) | GI50 (MCF7) | GI50 (PC-3) | GI50 (HCT-116)
CN1CCC23c4c5ccc(O)c4OC2C(=NN=C2CCC4(O)C6Cc7ccc(O)c8c7C4(CCN6C)C2O8)CCC3(O)C1C5 (configuration not stated) | > 100 µM (inactive) | > 100 µM (inactive) | > 100 | > 100 µM (inactive) | > 100 µM (inactive) | > 100 µM (inactive) | > 100 µM (inactive) | > 100 µM (inactive) | > 100 µM (inactive) | > 100 µM (inactive) | > 100 µM (inactive) | > 100 µM (inactive) | > 100 µM (inactive) | > 100 µM (inactive) | > 100 µM (inactive) |  |  |  |  | 
O=C1/C(=C(\Nc2ccccc2)c2ccccc2)C=NN1c1ccccc1 | 29.3 µM (inactive) | 76.9 µM (inactive) | > 100 | > 100 µM (inactive) | > 100 µM (inactive) | > 100 µM (inactive) | > 100 µM (inactive) | > 100 µM (inactive) |  | > 100 µM (inactive) | > 100 µM (inactive) | > 100 µM (inactive) | > 100 µM (inactive) | 17.7 µM (inactive) | > 100 µM (inactive) |  |  |  |  | 
O=C(O)[C@@H](NS(=O)(=O)c1ccc2ccccc2c1)c1ccccc1 | > 100 µM (inactive) | > 100 µM (inactive) | > 100 | > 100 µM (inactive) |  | 75.5 µM (inactive) |  | > 100 µM (inactive) |  |  | > 100 µM (inactive) | > 100 µM (inactive) | > 100 µM (inactive) | > 100 µM (inactive) | > 100 µM (inactive) |  |  |  |  | 
COc1cc(C2SCC(=O)N2c2ccc(-c3ccc(-n4c(-c5ccccc5)nc5ccccc5c4=O)cc3)cc2)cc(OC)c1OC (configuration not stated) | 21.1 µM (inactive) | 10.4 µM (inactive) | 28.6 | > 100 µM (inactive) | 43.4 µM (inactive) |  | 37.5 µM (inactive) | 10.6 µM (inactive) | > 100 µM (inactive) | 12.6 µM (inactive) | 30.3 µM (inactive) | 8.04 µM (inactive) | 54.1 µM (inactive) | 22.3 µM (inactive) | 81.5 µM (inactive) | 17.3 µM (inactive) | 23.1 µM (inactive) | 26.2 µM (inactive) | 11.4 µM (inactive) | 13.1 µM (inactive)
CCOC(=O)CCC(C(=O)OCC)n1nnc2cc(Nc3c(C)[n+]([O-])c4cc(F)c(OCC)cc4[n+]3[O-])ccc21 (configuration not stated) | > 100 µM (inactive) | > 100 µM (inactive) | > 100 | > 100 µM (inactive) | 87.1 µM (inactive) |  | > 100 µM (inactive) | > 100 µM (inactive) | > 100 µM (inactive) | > 100 µM (inactive) | 42.6 µM (inactive) | > 100 µM (inactive) | > 100 µM (inactive) | > 100 µM (inactive) | > 100 µM (inactive) | > 100 µM (inactive) | > 100 µM (inactive) | > 100 µM (inactive) | > 100 µM (inactive) | > 100 µM (inactive)
O=C(OC(/C=C/c1ccccc1)P1(=O)N(Cc2ccccc2)[C@@H]2CCCC[C@H]2N1Cc1ccccc1)c1ccccc1 (some centres not stated) | 2.15 µM (inactive) | 4.22 µM (inactive) | 3.44 | 4.43 µM (inactive) | 3.29 µM (inactive) |  | 4.56 µM (inactive) | 2.52 µM (inactive) | 6.43 µM (inactive) | 3.57 µM (inactive) | 3.17 µM (inactive) | 3.07 µM (inactive) | 2.04 µM (inactive) | 2.79 µM (inactive) | 3.03 µM (inactive) | 4.26 µM (inactive) | 2.81 µM (inactive) | 3.52 µM (inactive) | 3.16 µM (inactive) | 2.87 µM (inactive)
